Source: patent US6906205B2, “Spiro and dispiro 1,2,4-trioxolane antimalarials” (Medicines for Malaria Venture MMV, priority 2002, dated 2005)
Values after ≈ are worked out from the molar mass of the structure shown. Where two headings read alike, the source gives them in different places.

What was measured:
[1] = type: physicochemical
Text: It is presumed that thermal decomposition of these trioxolanes was initiated by formation of a 1,5 diradical produced by homolytic cleavage of the peroxide bond of the trioxolane ring.

[2] = Rane test, single 640 mg/kg doses in mice; type: in vivo
[3] = system: P. falciparum NF54 strain (sensitive to standard antimalarials); test: semiautomated microdilution assay, [3H]-hypoxanthine incorporation, NF54 strain; type: cell-based, Plasmodium falciparum
In short: (§1)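 Compounds were tested against intraerythrocytic parasites taken from asynchronous stock cultures, using semiautomated microdilution. IC50 values were estimated by logit regression analysis.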

neuroblastoma cell line = test: toxicity in a neuroblastoma cell line; type: cell-based
P. falciparum = test: in vitro potency against P. falciparum (strain not stated); type: cell-based; conditions: Plasmodium falciparum
[4] = system: Schistosoma mansoni adult schistosomes (49-day-old); test: effect on adult schistosomes (49-day-old) in mice; type: in vivo; conditions: for adult worms at day 49, per os 400 mg/kg, DEAD WORM (%) / % reduction of adult worms growth at day 49 after per os application of 400 mg/kg, TWR (%): single 400 mg/kg per os; for adult worms at day 49, per os 600 mg/kg, DEAD WORM (%) / % reduction of adult worms growth at day 49 after per os application of 600 mg/kg, TWR (%): single 600 mg/kg per os
Description: Mice were infected with 100 Schistosoma mansoni cercariae […]. Each group was treated per os with OZ compounds at single doses of 200, 400, and 600 mg/kg. […] All groups were killed 4 weeks after treatment and the liver and intestine were removed and separated. The liver and intestine were compressed and alive male and female worms could be seen and counted.

[5] = system: ANKA strain of P. berghei; test: single dose STI in vivo screen in infected mice; set-up: species or system Plasmodium berghei
In short: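 Groups of 3-5 Moro SPF or NMRI mice infected with the ANKA strain of P. berghei received a single dose of trioxolane on day one post-infection. The compound was given in 3% ethanol and 7% Tween 80 or in SSV (0.5% w/v CMC, 0.5% v/v benzyl alcohol, 0.4% v/v Tween 80, 0.9% w/v sodium chloride in water). Antimalarial activity was scored as percent reduction in parasitemia on day three and as survival time versus untreated controls. Survival to day 30 counted as cure.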

[6] = system: ANKA strain of Plasmodium berghei; test: single dose ED50/ED90/ED99 determinations in infected mice; type: in vivo; conditions: single dose po in SSV, mice, percent reduction in parasitemia on day three post-infection
In short: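 Mice (Moro SPF or NMRI, n=3 per group) infected with P. berghei ANKA received a single dose on day 1 post-infection, vehicle 0.5% CMC/0.5% benzyl alcohol/0.4% Tween 80/0.9% NaCl in water. Read-out is percent reduction in parasitemia on day 3; ED values by nonlinear fitting.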

[7] = system: P. falciparum K1 strain (Thailand resistant to chloroquine); test: semiautomated microdilution assay, [3H]-hypoxanthine incorporation, K1 strain; type: cell-based, Plasmodium falciparum; conditions: K1 strain, 72 h incubation
In short: as §1

[8] = system: parasitemia (malaria infection); test: onset of action and recrudescence experiments; type: in vivo; conditions: single 100 mg/kg po (SSV) on day +3 post-infection; recrudescence = >5% parasitemia; followed up to 60 days; (n/5) = animals
Description: The onset of drug action was determined after a single fixed dose of 100 mg/kg (SSV vehicle) po to groups of five animals on day +3 post-infection (day 0).

[9] = system: Schistosoma mansoni adult schistosomes (49-day-old); test: effect on adult schistosomes (49-day-old) in mice; type: in vivo; conditions: 1 × 600 mg/kg sc.
dosing in rats = type: in vivo; conditions: rat; for IV t1/2 (10 mg/kg): IV 10 mg/kg; for Oral Bioavailability 10 mg/kg: oral 10 mg/kg; for Oral Bioavailability 25 mg/kg / Oral t1/2 (25 mg/kg): oral 25 mg/kg
Text: (§2) Artesunate is listed as a reference compound.

dosing in dogs = type: in vivo; conditions: dog; for IV t1/2 (10 mg/kg): IV 10 mg/kg; for Oral t1/2 (10 mg/kg) / Oral Bioavailability 10 mg/kg: oral 10 mg/kg; for Oral Bioavailability 10 mg/kg / Oral Bioavailability 25 mg/kg: OZ 279, OZ 256, OZ 209 values flagged (V); for Oral Bioavailability 25 mg/kg: oral 25 mg/kg
Text: as §2

[10] = system: Schistosoma mansoni 21-day-old schistosomules; test: effect on 21-day-old schistosomules in mice; type: in vivo; conditions: single 200 mg/kg per os, female mice
Description: All groups were killed 4 weeks after treatment and the liver and intestine were removed and separated. The liver and intestine were compressed and alive male and female worms could be seen and counted. The effect of the compounds was evaluated by mean total and female worm burden.

SMILES | toxicity at single 640 mg/kg doses in mice in the Rane test [2] | toxicity in a neuroblastoma cell line (neuroblastoma cell line) | IC50 (P. falciparum) [ng/mL] | adult worms at day 49, per os 400 mg/kg, DEAD WORM (%) [4] | adult worms at day 49, per os 600 mg/kg, DEAD WORM (%) [4] [%] | ED90 [6] [mg/kg] | ED99 [6] [mg/kg] | % reduction of adult worms growth at day 49 after per os application of 400 mg/kg, TWR (%) [4] | % reduction of adult worms growth at day 49 after per os application of 600 mg/kg, TWR (%) [4] [%] | Time of Recrudescence [8] [days] | % reduction of adult worms growth, 1 × 600 sc., TWR (%) [9] [%] | adult worms, 1 × 600 sc., DEAD WORM (%) [9] [%] | IV t1/2 (10 mg/kg) (dosing in rats) [min] | Oral Bioavailability 10 mg/kg (dosing in rats) [%] | Oral Bioavailability 25 mg/kg (dosing in rats) [%] | Oral t1/2 (25 mg/kg) (dosing in rats) [min] | IV t1/2 (10 mg/kg) (dosing in dogs) [min] | Oral t1/2 (10 mg/kg) (dosing in dogs) [min] | Oral Bioavailability 10 mg/kg (dosing in dogs) [%] | Oral Bioavailability 25 mg/kg (dosing in dogs) [%] | further results
C[C@@H]1CC[C@H]2[C@@H](C)C(=O)O[C@@H]3O[C@@]4(C)CC[C@@H]1[C@]32OO4 [Artemisinin, artemisinin] |  |  |  |  |  |  |  |  |  |  |  |  |  |  |  |  |  |  |  |  | Tm, dec (DSC thermal stability) [1]: 181 °C
C1CCC2(CC1)OOC1(O2)C2CC3CC(C2)CC1C3 (centres unmarked) [OZ03] | no toxicity | no toxicity | 1 to 5 (≈ 3.78 to 18.9 nM) |  |  |  |  |  |  |  |  |  |  |  |  |  |  |  |  |  | IC50 ([3]; Plasmodium falciparum, NF54, 72 h, read-out: IC50 (ng/ml) NF54): 1.6 ng/mL (≈ 6.05 nM)
O=C1CCC2(CC1)OOC1(O2)C2CC3CC(C2)CC1C3 (centres unmarked) [OZ05] | no toxicity | no toxicity | 1 to 5 (≈ 3.59 to 18 nM) | 32% | 58 | 12 | 15 |  |  |  |  |  |  |  |  |  |  |  |  |  | adult worms at day 49, per os 200 mg/kg, DEAD WORM (%) ([4]; single 200 mg/kg per os): 12%; Activity (%) po ([5]; percent reduction in parasitemia day 3 post-infection, single 10 mg/kg po in 3% ethanol and 7% Tween 80, mice): 94%; Activity (%) sc ([5]; percent reduction in parasitemia day 3 post-infection, single 10 mg/kg sc in 3% ethanol and 7% Tween 80, mice): 99.7%; Activity (%) SSVpo ([5]; percent reduction in parasitemia day 3 post-infection, single po dose in standard suspending vehicle (SSV), mice): 74%; Survival (days) po ([5]; single 10 mg/kg po in 3% ethanol and 7% Tween 80, untreated control 5.6 ± 0.3): 7.1 days; Survival (days) sc ([5]; single 10 mg/kg sc in 3% ethanol and 7% Tween 80, untreated control 5.6 ± 0.3): 8.6 days; Survival (days) SSVpo ([5]; single po dose in SSV, untreated control 5.6 ± 0.3): 6.2 days; ED50 ([6]; Plasmodium berghei, read-out: ED50): 8.7 mg/kg; IC50 ([7]; Plasmodium falciparum, read-out: IC50 (ng/ml) K1): 0.19 ng/mL (≈ 0.683 nM)
CC(C)(N)CNC(=O)C[C@H]1CC[C@]2(CC1)OO[C@]1(O2)C2CC3CC(C2)CC1C3 [OZ277] |  |  |  | 0/0% | 14 | 2.0 | 4.4 | 0/0% | 17 | 13.0 | 39 | 17 | 77.2 | 36.9 | 44.1 | 90.5 | 95.0 | 148.1 | 87.9 | 96.1 | Activity (%) 3 mg/kg SSV po ([5]; percent reduction in parasitemia day 3 post-infection, single 3 mg/kg po in SSV): 99.28%; Activity (%) 10 mg/kg SSV po ([5]; percent reduction in parasitemia day 3 post-infection, single 10 mg/kg po in SSV): 99.98%; Survival (days) 10 mg/kg SSV po ([5]; single 10 mg/kg po in SSV): 9.3 days; ED50 [6]: 0.78 mg/kg; % reduction of schistosomule growth at day 21 after per os application of 200 mg/kg, FWR (%) [10]: 92%; % reduction of schistosomule growth at day 21 after per os application of 200 mg/kg, TWR (%) [10]: 91%
Cc1ccc(S(=O)(=O)O)cc1.O=C(C[C@H]1CC[C@]2(CC1)OO[C@]1(O2)C2CC3CC(C2)CC1C3)N1CCNCC1 [OZ279] |  |  |  | 12% | 20 | 1.8 | 3.9 | 0% | 33 | 15.0 | 21 | 27 | 100.5 | 37.2 | 71.1 | 166.8 | 177.5 | 195.3 | 32.8 | 55.7 | Survival (days) 3 mg/kg SSV po ([5]; single 3 mg/kg po in SSV): 8.4 days; Survival (days) 10 mg/kg SSV po ([5]; single 10 mg/kg po in SSV): 9.3 days; IC50 (ng/ml) NF54 ([3]; NF54 strain, 72 h incubation): 0.24 ng/mL; ED50 [6]: 0.63 mg/kg; IC50 (ng/ml) K1 [7]: 0.21 ng/mL; % reduction of schistosomule growth at day 21 after per os application of 200 mg/kg, FWR (%) [10]: 88%; % reduction of schistosomule growth at day 21 after per os application of 200 mg/kg, TWR (%) [10]: 86%
